System: AXL
Experiment: Effect of AC and PKA on Hc-CATH-induced AXL downregulation in A549 cells
Type: cell-based, Homo sapiens
Conditions: 1 h pre-incubation of A549 cells, then Hc-CATH 5 μM, 24 h, Western blot
Description: Figure 6 Hc-CATH downregulates AXL via inhibiting COX-2/PGE2/AC/PKA pathway.A, effect of Hc-CATH on COX-2 protein level. A549 cells were incubated with Hc-CATH (1.25, 2.5, or 5 μM) or PBS (solvent of Hc-CATH) at 37 °C for 24 h, COX-2 protein level was examined by Western blot (upper panel) and analyzed by ImageJ (lower panel). B, effect of Hc-CATH on the enzymatic activity of COX-2. Hc-CATH (1.25, 2.5, 5, and 10 μM) or PBS was incubated with COX-2. After incubation at 37 °C for 10 min, the enzymatic activity of COX-2 was detected by enzyme activity inhibitor screening kit. Celecoxib (COX-2 inhibitor, 100 nM) was used as positive control. C, effect of Hc-CATH on PGE2 production. A549 cells were incubated with Hc-CATH (5 μM) at 37 °C. After incubation for 24 h, the level of PGE2 in the cell supernatant was detected by ELISA. D and E, effect of AC (D) and PKA (E) on Hc-CATH-induced AXL downregulation. A549 cells were incubated with forskolin (FSK, agonist of AC, 10 μM) or H89 (inhibitor of PKA, 5 μM) at 37 °C. After incubation for 1 h, the culture media were removed, cells were washed three times with PBS, and fresh culture media were added to cells in the presence of Hc-CATH (5 μM). After incubation for 24 h, AXL protein level was examined by Western blot (upper panel of D and E) and analyzed by ImageJ (lower panel of D and E). ns, not significant, ∗∗p < 0.01, and ∗∗∗p < 0.001. […]

With C=C[C@@]1(C)CC(=O)[C@]2(O)[C@@]3(C)[C@@H](O)CCC(C)(C)[C@@H]3[C@H](O)[C@H](OC(C)=O)[C@@]2(C)O1 [FSK, forskolin] the “effect on Hc-CATH-induced AXL downregulation” value (FSK 10 μM) was “effectively counteracted the Hc-CATH-induced AXL downregulation”.
With O=S(=O)(NCCNC/C=C/c1ccc(Br)cc1)c1cccc2cnccc12 [H89] the “effect on Hc-CATH-mediated AXL downregulation” value (H89 5 μM) was “significantly facilitated Hc-CATH-mediated AXL downregulation”.

Source: paper PMC9530963, “A cathelicidin antimicrobial peptide from Hydrophis cyanocinctus inhibits Zika virus infection by downregulating expression of a viral entry factor” (The Journal of Biological Chemistry, 2022)
